“Also recorded” adds a separate entry of the source.
Assays:
[1] = system: semi-isolated Z. atratus heart; assay: semi-isolated heart bioassay (video microscopy, continuously perfused heart); parameters: species or system Zophobas atratus; conditions: synthetic peptide 1×10^-9 M in saline, semi-isolated adult Z. atratus heart, n = 3–8 (Figure 8)
Description: All HPLC fractions were re-suspended in 100 µl of T. molitor saline (274 mM NaCl, 19 mM KCl, 9 mM CaCl2, 5 mM glucose, and 5 mM HEPES, pH 7.0), to a concentration of 1 brain or CC/CA equivalent, and assayed in vitro using a semi-isolated Z. atratus heart prepared according to Gäde and Rosinski ([1990]). In the bioassay, the video microscopy technique and the computer-based method of data acquisition and analysis were used to study the action of the fractions on continuously perfused heart preparations as described previously ([Marciniak et al. 2008]). The activities of tested fractions are presented as percentage changes in the control frequency of the heart contraction.
Synthetic peptides were dissolved in saline to yield a stock solution of 1 mM and were stored at -30 °C. Working dilutions (1×10^-9 M) were made from the stock solution in saline.

heart of T. molitor = conditions: cited from earlier work
Excerpt: The most prominent ion signal (1257.8) in both the brain and CC/CA corresponds to leucomyosuppressin, a member of the FMRFamide family first characterized from the cockroach L. maderae ([Holman et al. 1986a]). […] These peptides are pleiotropic as their effects on insects include the modulation of muscle contractile activity ([Predel and Nachman 2001]; [Rosinski 1995]).

heart muscles in beetles = conditions: synthetic peptide; ref Rosinski 1995; cited from earlier work
Description: All HPLC fractions were re-suspended in 100 µl of T. molitor saline (274 mM NaCl, 19 mM KCl, 9 mM CaCl2, 5 mM glucose, and 5 mM HEPES, pH 7.0), to a concentration of 1 brain or CC/CA equivalent, and assayed in vitro using a semi-isolated Z. atratus heart prepared according to Gäde and Rosinski ([1990]). In the bioassay, the video microscopy technique and the computer-based method of data acquisition and analysis were used to study the action of the fractions on continuously perfused heart preparations as described previously ([Marciniak et al. 2008]). The activities of tested fractions are pre ... || An AKH (Tenmo-AKH: pELNFSPNWa) had previously been identified from the CC of both T. molitor and Z. atratus (formerly Z. rugipes) ([Gäde and Rosinski 1990]), whereas two AKHs (pELNFSTDWa and pELNFTPNWa) are present in T. castaneum ([Audsley and Weaver, 2008]; [Gäde et al 2008]). From mass analysis of Z. atratus CC, only AKH was identified by the precursor ions 1009.7 and 1025.7, which represent the Na^+ and K^+ adducts of Temno-AKH, and its sequence was confirmed by MALDI-PSD. The protonated form of AKH is not usually detected using MALDI-TOF MS ([Audsley and Weaver, 2003]). Fraction 31 from t ...

[2] = system: semi-isolated Z. atratus heart; conditions: ref Skonieczna and Rosinski 2004; cited from earlier work
Excerpt: The most prominent ion signal (1257.8) in both the brain and CC/CA corresponds to leucomyosuppressin, a member of the FMRFamide family first characterized from the cockroach L. maderae ([Holman et al. 1986a]).

GRWGGFA [Trica-NVP-4 trunc, truncated NVP-like peptide-4 (GRWGGFA)]
chronotropic effect on heart contractile activity (in words) [1]: no effect on heart activity | chronotropic effect on heart contractile activity (in words) ([1]; listed as NVP-4 trunc.): no effect on heart contractile activity

PFCNAFTGCa [CCAP, crustacean cardioactive peptide]
effect on contractions of the myocardium of T. molitor (heart of T. molitor; ref Furuya et al. 1993): stimulate contractions of the myocardium

Proctolin
effect on beetle heart contractions (heart muscles in beetles): stimulates contractions of the heart muscles

SPPFAPRLa [Pyrokinin 2]
chronotropic effect on heart contractile activity (in words) [1]: minor positive chronotropic effect | chronotropic effect on heart contractile activity (in words) ([1]; listed as PK 2): neither synthetic PK 2 nor the corresponding HPLC fraction (25) of CC/CA extract are active

leucomyosuppressin [LMS]
inhibition of heart contractile activity (percentage change in the control frequency of heart contraction) ([1]; means ± SEM): 30% | cardioinhibition in Z. atratus [2]: dose-dependent reversible cardioinhibition | cardioinhibition in T. molitor (heart of T. molitor; ref Skonieczna and Rosinski 2004): dose-dependent reversible cardioinhibition

pELNFSPNWa [AKH]
effect on beetle heart contractions (heart muscles in beetles): positive chronotropic effects

pETSDDYGHLRFa [sulfakinin 1]
chronotropic effect on heart contractile activity (in words) [1]: Neither sulfakinin 1 nor fraction 22 from the brain had any significant action; also recorded: no significant effects

pETSFTPRLa [Lem-PK]
stimulatory activity on the heart of T. molitor (heart of T. molitor; ref Rosinski 1995): very little stimulatory activity

Source: publication PMC3016957, “Identification of Myotropic Neuropeptides from the Brain and Corpus Cardiacum-Corpus Allatum Complex of the Beetle, Zophobas atratus” (Journal of Insect Science, 2010)
